Results on six molecules are retold here after paper PMC11330772, “Unveiling the kinetic versatility of aryl-alcohol oxidases with different electron acceptors” (Frontiers in Bioengineering and Biotechnology, 2024).

For data set [1], the target named is T1, BaAAO (Bjerkandera adusta, UniProt A0ABF7PQ87). Nature of the data set: Steady-state bi-substrate kinetics of alcohol oxidation. It counts as biochemical. As to the method: (§1) Bi-substrate kinetics were analyzed by concurrently varying the concentration of the aforementioned alcohols and electron acceptors. Oxygen assays were carried out in a screw-cap cuvette where the alcohol was equilibrated with the desired concentration of O2 by bubbling with the appropriate O2/N2 gas mixture (4%, 10%, 21%, 44%, and 100% O2) for 10 min. Alcohol oxidation was initiated by the addition of the enzyme and followed at 285 nm for 4-methoxybenzaldehyde production and 295 nm in the case of 3-Cl-4-methoxybenzaldehyde (Δε285 = 16,950 M^−1cm^−1 and Δε295 = 15,000 M^−1cm^−1, respectively) ([Ferreira et al., 2005]). […]. BQ solutions were prepared immediately prior to use and protected from the light to avoid photodegradation.
(§2) The initial rates for bi-substrate kinetics were fitted to Eq. 1 or Eq. 2, which describe sequential and ping-pong kinetic mechanisms, respectively. […]

The target of data set [2] is T2, PeAAO (Pleurotus eryngii, UniProt O94219). The data set is described as above. It counts as biochemical. The protocol: as §1, §2
The target of data set [3] is T2, PeAAO. Further details: method as in Ferreira et al. (2023). The following applies: alcohol substrate 4-methoxybenzyl alcohol, 50 mM phosphate, pH 6.0, 25 °C, ref Ferreira et al. (2023); cited from earlier work.
In data set [4] the target is T2, PeAAO. Nature of the data set: Stopped-flow oxidative half-reaction (flavin reoxidation by O2 or BQ). The settings on record: PeAAO.
The target of data set [5] is T1, BaAAO. Further details: method as in Ferreira et al. (2023). The settings on record: alcohol substrate 4-methoxybenzyl alcohol, 50 mM phosphate, pH 6.0, 25 °C, ref Ferreira et al. (2023); cited from earlier work.
For data set [6], the target named is T2, PeAAO. The settings on record: pH 6.0, 12 °C, cited from earlier work.
For data set [7], the target named is T1, BaAAO.
The target of data set [8] is T2, PeAAO.
The target of data set [9] is T1, BaAAO. The data set can be described thus: Stopped-flow reductive half-reaction (flavin reduction by alcohol). It counts as biochemical. The settings on record: anaerobic, 50 mM sodium phosphate, pH 6.0, 25 °C. The protocol: (§3) Studies on the reductive half-reaction were performed by mixing AAO (∼10 μM, final concentration) with increasing concentrations of alcohols under anaerobic conditions. Observed rate constants (k obs) were calculated using global analysis and numerical integration methods, simultaneously utilizing all spectral data in the 400–800 nm region along time evolution using the ProKineticist software from Applied Photophysics.

The target of data set [10] is T2, PeAAO. The data set is described as above. The format is biochemical. As to the method:
as §3

Data set [11] deals with T1, BaAAO. Nature of the data set: Redox state of the enzyme during turnover (stopped-flow). The format is biochemical. The following applies: in the presence of O2 (air), saturating alcohol, pH 6.0, 25 °C.
Data set [12] concerns the target T1, BaAAO. The data set can be described thus: biochemical.
Data set [13] deals with T2, PeAAO. Further details: method as in Carro et al. (2018a). The settings on record: pH 6.0, 12 °C, ref Carro et al. (2018a), cited from earlier work.
Substrate in data set [14]: COc1ccc(CO)cc1Cl
The data set can be described thus: Steady-state bi-substrate kinetics of alcohol oxidation. The format is biochemical, Bjerkandera adusta. The following applies: other: BaAAO, 50 mM phosphate, pH 6.0, 25 °C. As to the method:
as §1, §2

Substrate in data set [15]: O=C1C=CC(=O)C=C1
The description is as above. It counts as biochemical, Bjerkandera adusta. The settings on record: other: BaAAO, alcohol substrate 3-Cl-4-methoxybenzyl alcohol, 50 mM phosphate, pH 6.0, 25 °C. As to the method:
as §1, §2

Substrate in data set [16]: COc1ccc(CO)cc1Cl
The data set is described as above. It counts as biochemical, Pleurotus eryngii. The following applies: other: PeAAO, 50 mM phosphate, pH 6.0, 25 °C. The protocol: as §1, §2

Substrate in data set [17]: O=C1C=CC(=O)C=C1
The description is as above. It counts as biochemical, Pleurotus eryngii. The settings on record: other: PeAAO, alcohol substrate 3-Cl-4-methoxybenzyl alcohol, 50 mM phosphate, pH 6.0, 25 °C. As to the method: as §1, §2

Where [18] appears, read: BaAAO, alcohol substrate 3-Cl-4-methoxybenzyl alcohol, 50 mM phosphate, pH 6.0, 25 °C.
The mark [19] stands for this setting: alcohol substrate 3-Cl-4-methoxybenzyl alcohol, 50 mM phosphate, pH 6.0, 25 °C.
[20] abbreviates: 50 mM sodium phosphate, pH 6.0, 12 °C.
[21] abbreviates: anaerobic, 50 mM sodium phosphate, pH 6.0, 25 °C.

Like-named read-outs stand apart in the source and are kept apart here. A value given as a limit tells only on which side of the number the result lay.

One may read the Km as the concentration of substrate that gives half-maximal velocity. What is called kcat is the maximal rate divided by the concentration of active sites. For orientation: kcat/Km means the turnover number divided by the Michaelis constant.

For `O=O` [O2], the “K m(acceptor)” value on BaAAO [1] (setting [18]) is recorded as 225 ± 8 µM; on PeAAO [2] (setting [19]), 67 ± 2 µM; on PeAAO [3] it was 176 ± 1 µM; on BaAAO [5] it was 134 ± 5 µM. For the same molecule, the “k cat/K m(acceptor)” value was 312000 ± 12000 M⁻¹ s⁻¹ at BaAAO [1] (setting [18]), 647000 ± 22000 M⁻¹ s⁻¹ at PeAAO [2] (setting [19]), 1,139 ± 35 s^−1mM^−1 on PeAAO [3] and 549000 ± 23000 M⁻¹ s⁻¹ at BaAAO [5]. The “reverse rate constant (k rev), y-axis intercept of reoxidation” value at PeAAO [4] came out at 17 s⁻¹. Besides, the “k ox(O2)” value on PeAAO [6] (PeAAO reduced by 3-Cl-4-methoxybenzyl alcohol, ref Ferreira et al. (2015)) is 790 ± 20 ^b s^−1mM^−1; on PeAAO [6] (PeAAO reduced by 4-methoxybenzyl alcohol, ref Carro et al. (2018a)), 770 ± 40 ^a s^−1mM^−1.
Turning to `COc1ccc(C(=O)O)cc1Cl` [3-Cl-4-methoxybenzoic acid], the k off was 13 ± 1 s⁻¹ at BaAAO [7] (setting [20]) and “no dissociation” on PeAAO [8] (50 mM sodium phosphate, pH 6.0, 12 °C, nd = not detected). In addition, the k on on BaAAO [7] (setting [20]) turned out to be 47000 ± 2000 M⁻¹ s⁻¹; on PeAAO [8] (setting [20]) it was 37000 ± 1000 M⁻¹ s⁻¹. Also, the Kd at BaAAO [7] (read-out: K d(acid), K d = k off/k on, pH 6.0, 12 °C) was 276 ± 38 µM.
In the case of `COc1ccc(CO)cc1Cl` [3-Cl-4-methoxybenzyl, 3-chloro-4-methoxybenzyl alcohol], the “turnover of BaAAO higher than PeAAO” value at BaAAO [1] (O2 as electron acceptor) is recorded as 2 fold. The “k cat lower than for the other substrate (4-methoxybenzyl alcohol)” value on PeAAO [2] is given as 4 fold. Also, the results for the k red at BaAAO [9] and on PeAAO [10] (setting [21]) were 121 ± 11 s⁻¹ and 96 ± 3 s⁻¹, respectively. The “k red/K d(alcohol)” value on BaAAO [9] is 404000 ± 127000 M⁻¹ s⁻¹; on PeAAO [10] (setting [21]), 4,486 ± 725 s^−1mM^-1. Moreover, the Kd is 300 ± 91 µM on BaAAO [9] (read-out: K d(alcohol)) and 21 ± 3 µM on PeAAO [10] (anaerobic, 50 mM sodium phosphate, pH 6.0, 25 °C, read-out: K d(alcohol)). Further, the “k red higher than k cat” value at PeAAO [10] (turnover with BQ) is given as 4 fold; on PeAAO [10] (turnover with O2) it was 2 fold. For the same molecule, the “reduced form of the enzyme during turnover” value at BaAAO [11] is reported as not above 60%.
With `COc1ccc(C(=O)O)cc1` [4-Methoxybenzoic acid, 4-methoxybenzoic acid], the Kd at BaAAO [12] was 1810 ± 197 µM; on PeAAO [13] (K d = k off/k on, read-out: K d(acid)), 149 ± 10 µM. Moreover, the figures for the k off at BaAAO [12] (pH 6) and at PeAAO [13] (50 mM sodium phosphate) were 18 ± 2 s⁻¹ and 3 ± 1 s⁻¹, respectively. In addition, the k on at BaAAO [12] (pH 6) is 10000 ± 1000 M⁻¹ s⁻¹; on PeAAO [13] (50 mM sodium phosphate) it was 18000 ± 1000 M⁻¹ s⁻¹. The figures for the “k on slower than that of 3-Cl-4-methoxybenzoic acid” value on BaAAO [7] and at PeAAO [8] were approximately 5 fold and “approximately 2 fold”, respectively.

B1: BaAAO (Bjerkandera adusta) (protein)
chain: MVTFFTDASQLPATVYDFIVVGAGNAGNVVAARLTEDWKTTVLLIEAGISHEGIDSVAVPGLVLDNLPFSPVMWNYTTVPQAALDNRPIPYAKGRVVGGSSSVNFMEYTRSSNTEYDRWANLTGDAGWSWKNMEQYYLKNSRLVPPQDGHNTTGDVDPSVHGYGPVPLSLVGTPNPLDARMRAATQAPGAEFPFQLDMNGGDMIGFGIVQSTILNGERMHSGKAFLEPAMSRPNLHVLIENTVTRLIQTKTTNGLPSFMKVEFARDALSARSVVTATKEVVLSAGSIGTPQILMLSGIGDREELTAIGVNVTVDNPAVGKHLKDHPIMANYFQVNSNETYDDIFRDRDVSNTFLAQWKQNRTGPMVASPSTGLGFFRLPDNDTIFERFADPSPGEGAGHIELILSNQWTPEVQIPPATGSFLTVHAVVVSPASEGTVRLNSTNPFEFPLLDPQLLSSEFDQHTIIHAARLARQFVSSSPWADFVESRTGIIGDTDDDEADLLAAARQATVTIWHPMCTARMAPKGSTDGAIDPDLLVKGVSGLRVIDGAALPAIPATHPMAAIYLLAERGSDLIKQKWKL
For the molecule B1, in data set [14] (BQ as e− acceptor (anaerobic)), the Michaelis-Menten constant (Km) is on record as 26 ± 4 µM, the kcat was determined as 23 ± 1 s⁻¹ and the specificity constant (kcat/Km) came out at 910000 ± 146000 M⁻¹ s⁻¹. Also, in data set [14] (O2 as e− acceptor), the Km turned out to be 94 ± 4 µM, the kcat was found to be 70 ± 1 s⁻¹ and the kcat/Km was 747000 ± 32000 M⁻¹ s⁻¹. Also, in data set [15], the Km is reported as 66 ± 12 µM.

B2: PeAAO (Pleurotus eryngii) (protein)
chain: ADFDYVVVGAGNAGNVVAARLTEDPDVSVLVLEAGVSDENVLGAEAPLLAPGLVPNSIFDWNYTTTAQAGYNGRSIAYPRGRMLGGSSSVHYMVMMRGSTEDFDRYAAVTGDEGWNWDNIQQFVRKNEMVVPPADNHNTSGEFIPAVHGTNGSVSISLPGFPTPLDDRVLATTQEQSEEFFFNPDMGTGHPLGISWSIASVGNGQRSSSSTAYLRPAQSRPNLSVLINAQVTKLVNSGTTNGLPAFRCVEYAEQEGAPTTTVCAKKEVVLSAGSVGTPILLQLSGIGDENDLSSVGIDTIVNNPSVGRNLSDHLLLPAAFFVNSNQTFDNIFRDSSEFNVDLDQWTNTRTGPLTALIANHLAWLRLPSNSSIFQTFPDPAAGPNSAHWETIFSNQWFHPAIPRPDTGSFMSVTNALISPVARGDIKLATSNPFDKPLINPQYLSTEFDIFTMIQAVKSNLRFLSGQAWADFVIRPFDPRLRDPTDDAAIESYIRDNANTIFHPVGTASMSPRGASWGVVDPDLKVKGVDGLRIVDGSILPFAPNAHTQGPIYLVGKQGADLIKADQ
As for B2, in [16] (BQ as e− acceptor (anaerobic)), the Km was found to be 4 ± 1 µM, the kcat was 21 ± 1 s⁻¹ and the kcat/Km is 5,874 ± 481 s^−1mM^−1. For the same molecule, in data set [16] (O2 as e− acceptor), the Michaelis-Menten constant (Km) is listed as 11 ± 1 µM, the catalytic constant (kcat) was 43 ± 1 s⁻¹ and the kcat/Km is 3,806 ± 122 s^−1mM^−1. For the same molecule, in [17], the Michaelis constant (Km) is on record as 29 ± 2 µM.
